Experimental data published in US6814968B1, “Inhibition of viral infection and spread with viral and RhoA-derived peptides” (priority 1998, dated 2004).
“Also recorded” adds a separate entry of the source.

What was measured:
[1] = system: RSV; assay: RSV plaque inhibition assay: peptide pre-incubated with RSV, added to HEp-2 cells; assay type: cell-based, respiratory syncytial virus (A2 strain); conditions: 3 days; for plaque formation: peptide 5 mg/ml and 10 mg/ml incubated 1 h with RSV, vs PBS controls
[2] = system: HIV-1
[3] = system: RSV; assay: Cell-to-cell spread / syncytium formation of RSV in HEp-2 monolayers, peptide added to cells; assay type: cell-based, respiratory syncytial virus
[4] = system: RSV; assay: RSV infection of BALB/c mice, intranasal peptide treatment; assay type: in vivo
[5] = system: parainfluenza virus 3 (PIV3); assay: Syncytium formation by parainfluenza virus 3 in HEp-2 cells; assay type: cell-based
Procedure: RhoA77-95 was also added to HEp-2 cells in conjunction with parainfluenza virus 3 (PIV3) as infectious agent, as well as MT-2 cells, in conjunction with human immunodeficiency virus 1 (HIV-1) as infectious agent. Both viruses are known to cause the formation of syncytia during infection.

[6] = system: HIV; assay: MAGI cell assay of HIV entry; assay type: cell-based; conditions: β-galactosidase activity as endpoint
[7] = system: RSV; assay type: cell-based, respiratory syncytial virus; conditions: protein added to RSV prior to infection of HEp-2 cells
[8] = 500 μg intranasally at the time of RSV challenge, 10^7 pfu RSV
[9] = 500 μg intranasally on day 4 after RSV infection, vs PBS-treated controls
[10] = 10 amino acid peptides added to HEp-2 cell medium

## RhoA87-105: 19 amino acid peptide comprising RhoA amino acids 87-105 (DSPDSLENIPEKWTPEVKH; UniProt P61586 87-105, looked up, fragment)
[1]
  plaque formation: no inhibition
[2]
  destruction of infected MT-2 cells: completely destroyed by day 14
  syncytium formation by HIV-1: visible syncytia by day 4

## RhoA77-95: 19 amino acid peptide comprising the sequence of amino acids 77-95 of the RhoA protein (TDVILMCFSIDSPDSLENI; UniProt P61586 77-95, looked up, fragment)
[1]; RSV-specific antibody
  antigen-positive cells by immunoperoxidase staining: no antigen-positive cells were found
[1]
  plaque formation: completely blocked; also recorded: inhibited; also recorded: inhibit plaque formation
[3]; peptide 5 mg/ml added 20 or 24 hours post-adsorption, HEp-2, evaluated after three days
  syncytia formation: inhibited syncytia formation
[3]; peptide 5 mg/ml added 4 hours after RSV adsorption, HEp-2, evaluated after three days
  number of virus infected cells: reduced the number of virus infected cells and limited infection to single cells
[3]; peptide added after RSV adsorption, HEp-2
  cell-to-cell spread of RSV: inhibited
[4]; [8]
  illness: no discernable illness
  weight loss: no discernable illness or weight loss
[4]; [9]
  signs of illness: markedly diminished
  weight loss: slight reduction
[4]; administered to mice
  inhibition of RSV in vivo: inhibited RSV in vivo
[4]; peptide treatment on day 0 (time of challenge), lung plaque assay
  Day 5 RSV Titer (Log10 pfu/gram lung ± S.D.): 3.7 ± 0.3 Log10 pfu/gram lung
[4]; peptide treatment on day 4, lung plaque assay
  Day 5 RSV Titer (Log10 pfu/gram lung ± S.D.): 4.7 ± 0.3 Log10 pfu/gram lung
[4]; treatment at the time of infection, day 5 lungs
  decrease of RSV titers in lung: over 100 fold
[4]; treatment on day 4, day 5 lungs
  reduction of RSV titers in lung: more than 10 fold
[5]
  syncytium formation by PIV3: inhibited
[6]
  HIV virus entry into cells: Inhibition
[2]
  HIV-1 replication (RT and p24 assays): inhibited
  HIV-1 virus entry into / infection of MT-2 cells: inhibited
  reverse transcriptase activity in culture supernatants: undetectable

## RhoA77-86: 10 amino acid peptide, RhoA residues 77-86 (TDVILMCFSI; UniProt P61586 77-86, looked up, fragment)
[3]; [10]
  syncytium formation: did not block

## RhoA80-89: 10 amino acid peptide comprising amino acid residues 80-89 of the RhoA protein sequence (ILMCFSIDSP; UniProt P61586 80-89, looked up, fragment)
[3]; [10]
  RSV entry into HEp-2 cells: completely blocked

## whole RhoA protein: whole RhoA protein, 193 amino acid small GTP-binding protein
[7]
  number and size of plaques: increased

## RhoA67-85: 19 amino acid peptide comprising RhoA amino acids 67-85 (DRLRPLSYPDTDVILMCFS; UniProt P61586 67-85, looked up, fragment)
[1]
  plaque formation: no inhibition
[2]
  destruction of infected MT-2 cells: completely destroyed by day 14
  syncytium formation by HIV-1: visible syncytia by day 4

## RhoA83-92: 10 amino acid peptide, RhoA residues 83-92 (CFSIDSPDSL; UniProt P61586 83-92, looked up, fragment)
[3]; [10]
  syncytium formation: did not block
